Experimental data from ChEMBL document CHEMBL1201862, “PubChem BioAssay data set” (2004).
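Five concentrations, 48 hours, 96-well plates. GI50 is the concentration that inhibits growth by half.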 Active and inactive are the calls of the source. Cut-off read from the data, not from the text of the source: active = GI50 up to about 1.1 µM and inactive = higher.

Key:
Test in all cases: NCI tumour cell line growth inhibition, 48 h
ACHN = test system: ACHN
EKVX = test system: EKVX
HCT-15 = test system: HCT-15
HL-60 = test system: HL-60
HOP-92 = test system: HOP-92
IGROV-1 = test system: IGROV-1
MOLT-4 = test system: MOLT-4
Malme-3M = test system: Malme-3M
NCI-H460 = test system: NCI-H460
OVCAR-4 = test system: OVCAR-4
SK-MEL-28 = test system: SK-MEL-28
SK-MEL-2 = test system: SK-MEL-2
SK-OV-3 = test system: SK-OV-3
SR = test system: SR
TK-10 = test system: TK-10
UO-31 = test system: UO-31
RXF 393 = test system: RXF 393

SMILES	GI50 (ACHN)	GI50 (EKVX)	GI50 (HCT-15)	GI50 (HL-60)	GI50 (HOP-92)	GI50 (IGROV-1)	GI50 (MOLT-4)	GI50 (Malme-3M)	GI50 (NCI-H460)	GI50 (OVCAR-4)	GI50 (SK-MEL-28)	GI50 (SK-MEL-2)	GI50 (SK-OV-3)	GI50 (SR)	GI50 (TK-10)	GI50 (UO-31)	GI50 (RXF 393)
CC1=C(N(C)C)C(=O)c2nc3n(c2C1=O)CCC3OC(N)=O (stereo not drawn)	16.7 µM (inactive)	20.5 µM (inactive)	14.5 µM	10.4 µM (inactive)	14.8 µM (inactive)	16.8 µM (inactive)	13.1 µM (inactive)	11.2 µM (inactive)	15.6 µM (inactive)	19.9 µM (inactive)	20.2 µM (inactive)	15.6 µM (inactive)	15.2 µM (inactive)	31.3 µM (inactive)	18.2 µM (inactive)	17.3 µM (inactive)	–
CC(N)C(=O)c1ccc(O)cc1 (stereo not drawn)	> 100 µM (inactive)	> 100 µM (inactive)	> 100 µM	> 100 µM (inactive)	> 100 µM (inactive)	> 100 µM (inactive)	> 100 µM (inactive)	> 100 µM (inactive)	> 100 µM (inactive)	> 100 µM (inactive)	> 100 µM (inactive)	> 100 µM (inactive)	> 100 µM (inactive)	–	> 100 µM (inactive)	> 100 µM (inactive)	> 100 µM (inactive)
O=C(C#Cc1ccccc1)Nc1ccccc1CC(c1c[nH]c2ccccc12)c1c[nH]c2ccccc12	–	12.3 µM (inactive)	7.5 µM	–	–	16.3 µM (inactive)	3.33 µM (inactive)	25.6 µM (inactive)	–	–	15.5 µM (inactive)	18.3 µM (inactive)	33.2 µM (inactive)	–	31.5 µM (inactive)	13.5 µM (inactive)	3.02 µM (inactive)
Cc1ccc2nc(NC(=O)C(=O)CC(=O)c3cccc4ccccc34)sc2c1	41.9 µM (inactive)	92 µM (inactive)	59.2 µM	> 100 µM (inactive)	14.8 µM (inactive)	31.7 µM (inactive)	42.1 µM (inactive)	27 µM (inactive)	52 µM (inactive)	16.2 µM (inactive)	48.4 µM (inactive)	35.5 µM (inactive)	19.2 µM (inactive)	–	24.1 µM (inactive)	> 100 µM (inactive)	–
O=C(O)CNCc1c2ccccc2[n+]([O-])c2ccccc12	57.4 µM (inactive)	> 100 µM (inactive)	30.8 µM	33.5 µM (inactive)	16.9 µM (inactive)	91.6 µM (inactive)	31 µM (inactive)	> 100 µM (inactive)	72.4 µM (inactive)	49.3 µM (inactive)	75.7 µM (inactive)	> 100 µM (inactive)	> 100 µM (inactive)	–	> 100 µM (inactive)	21.1 µM (inactive)	–
[O-][S+]1c2ccccc2N=C(c2ccc3ccccc3c2)CC1c1ccccc1 (stereo not drawn)	16.4 µM (inactive)	25.1 µM (inactive)	16.4 µM	25.9 µM (inactive)	35.6 µM (inactive)	16.9 µM (inactive)	31 µM (inactive)	–	19.7 µM (inactive)	20.2 µM (inactive)	43 µM (inactive)	30.8 µM (inactive)	36.2 µM (inactive)	17.9 µM (inactive)	22.8 µM (inactive)	18.4 µM (inactive)	–
CCOC(=O)c1c[nH]c2c(ccc3ncccc32)c1=O	> 100 µM (inactive)	> 100 µM (inactive)	> 100 µM	> 100 µM (inactive)	–	> 100 µM (inactive)	> 100 µM (inactive)	> 100 µM (inactive)	> 100 µM (inactive)	> 100 µM (inactive)	> 100 µM (inactive)	> 100 µM (inactive)	> 100 µM (inactive)	> 100 µM (inactive)	> 100 µM (inactive)	> 100 µM (inactive)	> 100 µM (inactive)
COc1ccc(OC)c(NC(=O)C2=C(C)NC(C)=C(C(=O)Nc3cc(OC)ccc3OC)C2c2ccco2)c1	> 100 µM (inactive)	> 100 µM (inactive)	> 100 µM	–	> 100 µM (inactive)	> 100 µM (inactive)	27.7 µM (inactive)	> 100 µM (inactive)	> 100 µM (inactive)	–	–	> 100 µM (inactive)	> 100 µM (inactive)	64.6 µM (inactive)	> 100 µM (inactive)	> 100 µM (inactive)	–
O=C1CCC(=O)C12CCc1cccc(O)c12	> 100 µM (inactive)	> 100 µM (inactive)	> 100 µM	> 100 µM (inactive)	> 100 µM (inactive)	> 100 µM (inactive)	–	> 100 µM (inactive)	> 100 µM (inactive)	> 100 µM (inactive)	> 100 µM (inactive)	–	> 100 µM (inactive)	–	> 100 µM (inactive)	> 100 µM (inactive)	> 100 µM (inactive)
CCCOC(=O)C1CCC(=O)N1C(=O)C(C)Cl (stereo not drawn)	> 100 µM (inactive)	> 100 µM (inactive)	> 100 µM	> 100 µM (inactive)	> 100 µM (inactive)	> 100 µM (inactive)	> 100 µM (inactive)	> 100 µM (inactive)	> 100 µM (inactive)	> 100 µM (inactive)	> 100 µM (inactive)	> 100 µM (inactive)	> 100 µM (inactive)	–	> 100 µM (inactive)	> 100 µM (inactive)	–
COc1cc(C2c3cc4c(cc3[C@@H](NCCN3CCCCC3)C3COC(=O)[C@H]23)OCO4)cc(OC)c1O (stereo partly drawn)	0.486 µM (active)	1.55 µM (inactive)	0.313 µM	0.0426 µM (active)	0.142 µM (active)	1.33 µM (inactive)	0.0164 µM (active)	0.29 µM (active)	–	0.253 µM (active)	2.11 µM (inactive)	2.07 µM (inactive)	0.098 µM (active)	–	1.65 µM (inactive)	0.41 µM (active)	–
C/C(=N\N=C(\N)S)c1ccc(Oc2ccccc2)cc1	10.3 µM (inactive)	12.2 µM (inactive)	3.99 µM	4.06 µM (inactive)	3.65 µM (inactive)	2.59 µM (inactive)	0.971 µM (active)	–	17.3 µM (inactive)	3.7 µM (inactive)	11.7 µM (inactive)	–	16.2 µM (inactive)	–	4.09 µM (inactive)	–	10.3 µM (inactive)
CCN(CC)c1ccc(C2N3CCCCC3[C@@H]3c4[nH]c5ccccc5c4CCN23)cc1 (stereo partly drawn)	27 µM (inactive)	74.8 µM (inactive)	34.8 µM	7.43 µM (inactive)	38.1 µM (inactive)	42.8 µM (inactive)	25.5 µM (inactive)	24.2 µM (inactive)	22.3 µM (inactive)	36.5 µM (inactive)	25.9 µM (inactive)	> 10 µM (inactive)	69.7 µM (inactive)	–	27.2 µM (inactive)	27 µM (inactive)	15.8 µM (inactive)
Cc1ccc(O)c(/N=N/c2ccc(S(=O)(=O)O)cc2)n1	> 100 µM (inactive)	21 µM (inactive)	> 100 µM	> 100 µM (inactive)	> 100 µM (inactive)	> 100 µM (inactive)	> 100 µM (inactive)	–	> 100 µM (inactive)	–	> 100 µM (inactive)	–	> 100 µM (inactive)	–	> 100 µM (inactive)	> 100 µM (inactive)	> 100 µM (inactive)
O[C@]12CCCC[C@H]1CCC2	> 100 µM (inactive)	> 100 µM (inactive)	> 100 µM	> 100 µM (inactive)	> 100 µM (inactive)	> 100 µM (inactive)	> 100 µM (inactive)	> 100 µM (inactive)	> 100 µM (inactive)	> 100 µM (inactive)	> 100 µM (inactive)	> 100 µM (inactive)	> 100 µM (inactive)	–	> 100 µM (inactive)	> 100 µM (inactive)	> 100 µM (inactive)
Cc1c(O)c(=O)ccn1CCN	> 100 µM (inactive)	> 100 µM (inactive)	> 100 µM	–	> 100 µM (inactive)	> 100 µM (inactive)	> 100 µM (inactive)	> 100 µM (inactive)	> 100 µM (inactive)	> 100 µM (inactive)	> 100 µM (inactive)	> 100 µM (inactive)	> 100 µM (inactive)	–	> 100 µM (inactive)	> 100 µM (inactive)	> 100 µM (inactive)
O=C1c2cccc3cc([N+](=O)[O-])cc(c23)C(=O)N1CCCN1CCN(CCCN2C(=O)c3cccc4cc([N+](=O)[O-])cc(c34)C2=O)CC1	< 0.01 µM (active)	0.612 µM (active)	0.0495 µM	0.34 µM (active)	0.237 µM (active)	0.0628 µM (active)	0.027 µM (active)	0.571 µM (active)	0.0142 µM (active)	0.0925 µM (active)	–	0.23 µM (active)	2.59 µM (inactive)	–	0.798 µM (active)	0.0695 µM (active)	0.0933 µM (active)
COc1ccc(OC)c(/C=C2\CCc3ccccc3C2=O)c1	7.26 µM (inactive)	3.2 µM (inactive)	3.91 µM	1.68 µM (inactive)	1.23 µM (inactive)	11.4 µM (inactive)	2.59 µM (inactive)	3.72 µM (inactive)	3.44 µM (inactive)	6.52 µM (inactive)	5.12 µM (inactive)	2.93 µM (inactive)	2.58 µM (inactive)	–	5.16 µM (inactive)	–	1.76 µM (inactive)
CC12OC(=O)C(C#N)C1(C)C1C(=O)CCCC12 (stereo not drawn)	> 100 µM (inactive)	> 100 µM (inactive)	> 100 µM	> 100 µM (inactive)	–	> 100 µM (inactive)	> 100 µM (inactive)	> 100 µM (inactive)	> 100 µM (inactive)	> 100 µM (inactive)	> 100 µM (inactive)	> 100 µM (inactive)	> 100 µM (inactive)	–	> 100 µM (inactive)	> 100 µM (inactive)	> 100 µM (inactive)
